{
  "source": "ChEMBL document CHEMBL2157915",
  "about": "“Identification of a Natural Product Antagonist against the Botulinum Neurotoxin Light Chain Protease” (ACS Med Chem Lett, 2010)",
  "key": {"[1]": {"biological_target": "Botulinum neurotoxin type A (Clostridium botulinum) (UniProt P0DPI0)", "sequence (P0DPI0 2-448 limits assumed)": "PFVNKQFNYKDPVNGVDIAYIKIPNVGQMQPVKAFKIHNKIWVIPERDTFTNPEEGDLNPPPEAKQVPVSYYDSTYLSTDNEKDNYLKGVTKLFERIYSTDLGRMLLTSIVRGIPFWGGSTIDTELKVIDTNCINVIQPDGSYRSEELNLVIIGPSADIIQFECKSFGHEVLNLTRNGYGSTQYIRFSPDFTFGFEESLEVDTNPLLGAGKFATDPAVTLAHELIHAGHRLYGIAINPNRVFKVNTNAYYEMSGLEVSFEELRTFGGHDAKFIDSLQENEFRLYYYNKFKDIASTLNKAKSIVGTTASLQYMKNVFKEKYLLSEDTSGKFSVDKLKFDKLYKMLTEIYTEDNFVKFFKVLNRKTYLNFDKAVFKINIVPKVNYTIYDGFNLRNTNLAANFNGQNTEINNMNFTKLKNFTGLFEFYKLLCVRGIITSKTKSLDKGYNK", "settings": "5 uM"}, "[2]": {"biological_target": "Botulinum neurotoxin type A (Clostridium botulinum) (UniProt P0DPI0)", "settings": "90 uM"}, "[3]": {"biological_target": "Botulinum neurotoxin type A (Clostridium botulinum) (UniProt P0DPI0)", "settings": "150 uM"}, "[4]": {"biological_target": "Botulinum neurotoxin type A (Clostridium botulinum) (UniProt P0DPI0)"}, "[5]": {"biological_target": "T1, Botulinum neurotoxin type A (Clostridium botulinum, UniProt P0DPI0)", "T1 sequence (P0DPI0 2-448 limits assumed)": "as above"}, "[6]": {"biological_target": "T1, Botulinum neurotoxin type A", "remark": "listed apart in the source"}, "[7]": {"biological_target": "T1, Botulinum neurotoxin type A", "remark": "listed apart in the source"}, "[8]": {"biological_target": "Botulinum neurotoxin type A (Clostridium botulinum) (UniProt P0DPI0)", "settings": "500 uM"}, "[9]": {"biological_target": "T1, Botulinum neurotoxin type A", "remark": "listed apart in the source"}},
  "note": "The source made the active and inactive calls. No cut-off for these calls is given here.",
  "data": [
    {"smiles": "COC(=O)c1ccc(O)c2nc3c(C=O)c(O)cc(O)c3nc12", "note": "[LOMOFUNGIN]", "values": [
      {"measurement": "inhibition", "setting": "[1]", "value": "Active"},
      {"measurement": "inhibition", "setting": "[2]", "value": 10, "unit": "%"},
      {"measurement": "inhibition", "setting": "[3]", "value": "> 70", "unit": "%"},
      {"measurement": "Ratio IC50", "setting": "[4]", "value": 20},
      {"measurement": "Ki", "setting": "[5]", "value": 6.7, "unit": "µM"},
      {"measurement": "IC50", "setting": "[6]", "value": "≥ 50", "unit": "µM"},
      {"measurement": "EC50", "setting": "[7]", "value": 131, "unit": "µM"}
    ]},
    {"smiles": "Oc1cccc2cccnc12", "note": "[OXYQUINOLINE]", "values": [
      {"measurement": "inhibition", "setting": "[8]", "value": "inactive"},
      {"measurement": "IC50", "setting": "[9]", "value": "Not Active"}
    ]}
  ]
}
